Measurements reported in paper PMC6269066, “A New Synthetic Route to Original Sulfonamide Derivatives in 2-Trichloromethylquinazoline Series: A Structure-Activity Relationship Study of Antiplasmodial Activity” (Molecules, 2012).
Like-named read-outs stand apart in the source and are kept apart here.

Columns and labels:
[1] = cytotoxicity toward the human HepG2 cell line (CC50); conditions: HepG2 cells
[2] = system: multi-resistant K1 Plasmodium falciparum strain; assay: in vitro antiplasmodial activity, K1 strain (Table 1); type: cell-based
[3] = system: multi-resistant W2 or K1 Plasmodium falciparum strains; assay: in vitro antiplasmodial activity, 2-trichloromethylquinazoline series (Table 2); type: cell-based; conditions: for IC50: Plasmodium falciparum, read-out: IC50 P. falc.
[4] = system: human HepG2 cell line; design: method as in PMID 17981462, PMID 19482476, PMID 19926173, PMID 21741131, PMID 21852132; conditions: previously synthesized series (Table 2, entries 1-4); cited from earlier work
[5] = system: multi-resistant W2 or K1 Plasmodium falciparum strains; design: method as in PMID 17981462, PMID 19482476, PMID 19926173, PMID 21741131, PMID 21852132; conditions: previously synthesized series (Table 2, entries 1-4); W2 or K1 strain; read-out: IC50 P. falc.; cited from earlier work
[6] = system: human HepG2 cell line
[7] = in vitro; conditions: human
[8] = Plasmodium falciparum, P. falciparum K1 strain, highest tested concentration 10 µM, read-out: IC50 P fK1
[9] = P. falciparum K1 strain, highest tested concentration 10 µM, read-out: IC50 P fK1

IC50 [2, 8]	melting point	Structure (SMILES)	CC50 [1]	other results
> 10 µM	> 260 °C	O=S(=O)(Nc1nc(C(Cl)(Cl)Cl)nc2ccccc12)c1ccc(Br)cc1 [8f, 4-Bromo-N-(2-trichloromethylquinazolin-4-yl)benzenesulfonamide]	57.4 µM	
		CCN(CC)CCCC(C)Nc1ccnc2cc(Cl)ccc12 (stereo not shown) [Chloroquine, reference compound]		IC50 ([2]; Plasmodium falciparum, K1, read-out: IC50 P fK1): 0.6 µM; IC50 [3]: 0.6 µM
		Fc1ccc(-c2nc(C(Cl)(Cl)Cl)nc3ccccc23)cc1 [C00001]		CC50 [4]: > 125 µM; SI (selectivity index) ([3]; SI = CC50/IC50, previously synthesized series (Table 2, entries 1-4)): >50; IC50 [5]: 2.5 µM
> 10 µM	205 °C	O=S(=O)(Nc1nc(C(Cl)(Cl)Cl)nc2ccccc12)c1ccccc1C(F)(F)F [8o, N-(2-trichloromethylquinazolin-4-yl)-2-(trifluoromethyl)benzenesulfonamide]	73.8 µM	
> 10 µM	196 °C	COc1ccc(S(=O)(=O)Nc2nc(C(Cl)(Cl)Cl)nc3ccccc23)cc1 [8c, 4-Methoxy-N-(2-trichloromethylquinazolin-4-yl)benzenesulfonamide]	102 µM	
> 10 µM	250 °C	O=[N+]([O-])c1ccc(S(=O)(=O)Nc2nc(C(Cl)(Cl)Cl)nc3ccccc23)cc1 [8j, 4-Nitro-N-(2-trichloromethylquinazolin-4-yl)benzenesulfonamide]	88.3 µM	
> 10 µM	188 °C	O=S(=O)(Nc1nc(C(Cl)(Cl)Cl)nc2ccccc12)c1ccccc1F [8i, 2-Fluoro-N-(2-trichloromethylquinazolin-4-yl)benzenesulfonamide]	136 µM	
6 µM		C[C@H]1c2cccc(O)c2C(=O)C2=C(O)[C@]3(O)C(=O)C(C(N)=O)=C(O)[C@@H](N(C)C)[C@@H]3[C@@H](O)[C@@H]21 [Doxycycline, reference compound]	20 µM	IC50 ([3]; Table 2, sulfonamide series and reference drugs): 6 µM
> 10 µM	200 °C	O=S(=O)(Nc1nc(C(Cl)(Cl)Cl)nc2ccccc12)c1ccccc1 [8a, N-(2-Trichloromethylquinazolin-4-yl)benzenesulfonamide]	82 µM	
> 10 µM	186 °C	CS(=O)(=O)Nc1nc(C(Cl)(Cl)Cl)nc2ccccc12 [8t, N-(2-trichloromethylquinazolin-4-yl)methanesulfonamide]	241 µM	
> 10 µM	> 260 °C	O=S(=O)(Nc1nc(C(Cl)(Cl)Cl)nc2ccccc12)c1ccc(Cl)cc1 [8e, 4-Chloro-N-(2-trichloromethylquinazolin-4-yl)benzenesulfonamide]	71.1 µM	
> 10 µM	204 °C	O=[N+]([O-])c1cccc(S(=O)(=O)Nc2nc(C(Cl)(Cl)Cl)nc3ccccc23)c1 [8k, 3-Nitro-N-(2-trichloromethylquinazolin-4-yl)benzenesulfonamide]	120 µM	
> 10 µM	210 °C	O=S(=O)(Nc1nc(C(Cl)(Cl)Cl)nc2ccccc12)c1ccc(-c2ccccc2)cc1 [8p, N-(2-trichloromethylquinazolin-4-yl)biphenyl-4-sulfonamide]	38.2 µM	
		O=S(=O)(Nc1nc(C(Cl)(Cl)Cl)nc2ccccc12)c1ccc2ccccc2c1 [8q, N-(2-trichloromethylquinazolin-4-yl)naphtalene-2-sulfonamide]		IC50 [2, 9]: > 10 µM; CC50 [6]: 48.8 µM
> 10 µM	> 260 °C	O=S(=O)(Nc1nc(C(Cl)(Cl)Cl)nc2ccccc12)c1ccc(F)cc1 [8g, 4-Fluoro-N-(2-trichloromethylquinazolin-4-yl)benzenesulfonamide]	69.5 µM	
> 10 µM	255 °C	O=S(=O)(Nc1nc(C(Cl)(Cl)Cl)nc2ccccc12)c1cccc(C(F)(F)F)c1 [8n, N-(2-trichloromethylquinazolin-4-yl)-3-(trifluoromethyl)benzenesulfonamide]	75.1 µM	
> 10 µM	166 °C	O=S(=O)(Nc1nc(C(Cl)(Cl)Cl)nc2ccccc12)c1ccc(C(F)(F)F)cc1 [8m, N-(2-trichloromethylquinazolin-4-yl)-4-(trifluoromethyl)benzenesulfonamide]	49 µM	
> 10 µM	> 260 °C	O=[N+]([O-])c1ccccc1S(=O)(=O)Nc1nc(C(Cl)(Cl)Cl)nc2ccccc12 [8l, 2-Nitro-N-(2-trichloromethylquinazolin-4-yl)benzenesulfonamide]	126 µM	
> 10 µM	194 °C	O=S(=O)(Nc1nc(C(Cl)(Cl)Cl)nc2ccccc12)c1cccc(F)c1 [8h, 3-Fluoro-N-(2-trichloromethylquinazolin-4-yl)benzenesulfonamide]	106 µM	
> 10 µM	204 °C	N#Cc1ccc(S(=O)(=O)Nc2nc(C(Cl)(Cl)Cl)nc3ccccc23)cc1 [8d, 4-Cyano-N-(2-trichloromethylquinazolin-4-yl)benzenesulfonamide]	73.8 µM	
> 10 µM	> 260 °C	Cc1ccc(S(=O)(=O)Nc2nc(C(Cl)(Cl)Cl)nc3ccccc23)cc1 [8b, 4-Methyl-N-(2-trichloromethylquinazolin-4-yl)benzenesulfonamide]	68.7 µM	
		COc1cccc2c1C(=O)c1c(O)c3c(c(O)c1C2=O)C[C@@](O)(C(=O)CO)C[C@@H]3O[C@H]1C[C@H](N)[C@H](O)[C@H](C)O1 [Doxorubicine]		CC50 [7]: 0.2 µM
		O=S(=O)(Nc1nc(C(Cl)(Cl)Cl)nc2ccccc12)c1cccc2ccccc12 [8r, N-(2-trichloromethylquinazolin-4-yl)naphtalene-1-sulfonamide]		IC50 [2, 9]: > 10 µM; CC50 [6]: 47.8 µM
> 10 µM	191 °C	O=S(=O)(Nc1nc(C(Cl)(Cl)Cl)nc2ccccc12)c1cccs1 [8s, N-(2-trichloromethylquinazolin-4-yl)thiophene-2-sulfonamide]	121 µM	
